Experimental data reported in ChEMBL document CHEMBL5046232, “Affinity-based protein profiling identifies vitamin D3 as a heat shock protein 70 antagonist that regulates hedgehog transduction in murine basal cell carcinoma” (Eur J Med Chem, 2022).
The source made the active and inactive calls. The calls are words filed in the database; no cut-off is given here.

Assays:
[1] = Inhibition of hedgehog signalling in mouse ASZ001 cells assessed as reduction in Gli1 mRNA expression measured after 48 hrs by RT-PCR analysis; assay type: cell-based; settings: ASZ001, 48 h
[2] = Inhibition of hedgehog signalling in mouse C3H 10T1/2 cells assessed as reduction in Gli1 mRNA expression measured after 48 hrs by RT-PCR analysis; assay type: cell-based; settings: C3H 10T1/2, 48 h
[3] = Inhibition of hedgehog signalling in mouse Ptch-KO MEF cells assessed as reduction in Gli1 mRNA expression measured after 48 hrs by RT-PCR analysis; assay type: cell-based
[4] = Inhibition of hedgehog signalling in mouse Sufu-KO MEF cells assessed as reduction in Gli1 mRNA expression measured after 48 hrs by RT-PCR analysis; assay type: cell-based
[5] = biological target: T1, Vitamin D3 receptor (Mus musculus) (UniProt P48281); test: Activation of VDR in mouse C3H 10T1/2 cells assessed as upregulation of Cyp24A1 mRNA expression at 5 uM measured after 48 hrs by RT-PCR analysis relative to control; assay type: cell-based
T1 sequence (whole entry): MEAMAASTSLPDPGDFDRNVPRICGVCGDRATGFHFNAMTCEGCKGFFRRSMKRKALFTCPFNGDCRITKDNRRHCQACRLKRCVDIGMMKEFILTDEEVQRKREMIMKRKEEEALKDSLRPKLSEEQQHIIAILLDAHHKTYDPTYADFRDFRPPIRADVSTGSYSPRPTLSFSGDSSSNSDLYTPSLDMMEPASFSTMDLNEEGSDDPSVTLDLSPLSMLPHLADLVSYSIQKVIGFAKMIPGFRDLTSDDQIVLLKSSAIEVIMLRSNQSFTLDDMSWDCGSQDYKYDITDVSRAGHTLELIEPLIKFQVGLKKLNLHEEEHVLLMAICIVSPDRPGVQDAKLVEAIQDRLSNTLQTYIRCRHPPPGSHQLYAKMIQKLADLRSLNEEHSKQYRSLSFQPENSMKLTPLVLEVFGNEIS

[6] = biological target: T1, Vitamin D3 receptor (Mus musculus); test: Activation of VDR in mouse ASZ001 cells assessed as upregulation of Cyp24A1 mRNA expression at 5 uM measured after 48 hrs by RT-PCR analysis relative to control; assay type: cell-based
[7] = Binding affinity to recombinant human HSP70 assessed as dissociation constant incubated for 1 hrs […]
[8] = biological target: T1, Vitamin D3 receptor (Mus musculus); test: Activation of VDR in mouse ASZ001 cells assessed as upregulation of Cyp24A1 mRNA expression at 2.5 uM measured after 48 hrs by RT-PCR analysis relative to control; assay type: cell-based; settings: filed as activator
[9] = biological target: T1, Vitamin D3 receptor (Mus musculus); test: Activation of VDR in mouse C3H 10T1/2 cells assessed as upregulation of Cyp24A1 mRNA expression at 2.5 uM measured after 48 hrs by RT-PCR analysis relative to control; assay type: cell-based; settings: filed as activator
[10] = Inhibition of hedgehog signalling in mouse VDR-KO MEF cells assessed as reduction in Gli1 mRNA expression measured after 48 hrs by RT-PCR analysis; assay type: cell-based
Mus musculus = organism: Mus musculus; test: Selectivity index, ratio of IC50 for Inhibition of hedgehog signalling in mouse VDR-KO MEF cells to IC50 for inhibition of hedgehog signalling in mouse ASZ001 cells; assay type: cell-based
Homo sapiens [11] = organism: Homo sapiens; test: Binding affinity to recombinant human HSP70 incubated for 1 hrs by Western blotting based pull-down assay; settings: filed as antagonist
ASZ001 [12] = test: Antiproliferative activity against mouse ASZ001 assessed as reduction in cell proliferation incubated for 72 hrs by MTS assay; assay type: functional, cell-based
C3H 10T1/2 = test: Antiproliferative activity against mouse C3H 10T1/2 assessed as reduction in cell proliferation incubated for 72 hrs by MTS assay; assay type: functional, cell-based
ASZ001 [13] = test: Inhibition of hedgehog signalling in mouse ASZ001 cells assessed as reduction in Gli1 mRNA expression at 10 uM for 20 hrs by […]; assay type: cell-based
Homo sapiens [14] = organism: Homo sapiens; test: Competitive binding affinity to recombinant human HSP70 at 200 uM incubated for 1 hrs in presence of Vitamin D3 by Western blotting based pull-down assay
Homo sapiens [15] = organism: Homo sapiens; test: Binding affinity to recombinant human HSP70 at 200 uM incubated for 1 hrs in presence of calcidiol by Western blotting based pull-down assay
Homo sapiens [16] = organism: Homo sapiens; test: Binding affinity to recombinant human HSP70 at 200 uM incubated for 1 hrs in presence of Calcitriol by Western blotting based pull-down assay; settings: filed as antagonist
ASZ001 [17] = test: Inhibition of hedgehog signalling in mouse ASZ001 cells assessed as upregulation of VDR expression in by immunoblot analysis; assay type: cell-based
MEF [18] = test: Inhibition of hedgehog signalling in mouse Sufu-KO MEF cells assessed as upregulation of VDR expression at 10 uM in by immunoblot analysis; assay type: cell-based
ASZ001 [19] = test: Inhibition of hedgehog signalling in mouse ASZ001 cells assessed as downregulation of VDR expression in by immunoblot analysis; assay type: cell-based
MEF [20] = test: Inhibition of hedgehog signalling in mouse Sufu-KO MEF cells assessed as upregulation of VDR expression at >15 uM in by immunoblot analysis; assay type: cell-based; settings: dose microM >15
MEF [21] = test: Inhibition of hedgehog signalling in mouse Sufu-KO MEF cells assessed as upregulation of Cyp27A1 expression by immunoblot analysis; assay type: cell-based
MEF [22] = test: Inhibition of hedgehog signalling in mouse Sufu-KO MEF cells assessed as upregulation of Cyp27B1 expression by immunoblot analysis; assay type: cell-based
ASZ001 [23] = test: Inhibition of hedgehog signalling in mouse ASZ001 cells assessed as upregulation of Cyp27A1 expression by immunoblot analysis; assay type: cell-based
ASZ001 [24] = test: Inhibition of hedgehog signalling in mouse ASZ001 cells assessed as upregulation of Cyp27B1 expression by immunoblot analysis; assay type: cell-based

**Q.** What does the source list for `CCn1c(=O)/c(=C2\Sc3ccccc3N2C)s/c1=C\c1cccc[n+]1CC.[Cl-]`?
**A.** IC50 [1]: 1800 nM; IC50 [2]: 5600 nM; IC50 [3]: 9500 nM; IC50 ([4]; mef): Not Active

**Q.** For `C=C1CC[C@H](O)C/C1=C/C=C1\CCC[C@]2(C)[C@@H]([C@H](C)[C@@H](O)CCC(C)(C)O)CC[C@@H]12`, which Activity ([5]; filed as activator) is on record?
**A.** 540%

**Q.** What about the IC50 [1] of the same molecule?
**A.** 1700 nM

**Q.** What about the Activity ([6]; filed as activator) of the same molecule?
**A.** 130%

**Q.** What about the IC50 [2] of the same molecule?
**A.** 1200 nM

**Q.** What about the Kd [7] of the same molecule?
**A.** > 50000 nM

**Q.** For `C=C1CC[C@H](O)C/C1=C/C=C1\CCC[C@]2(C)[C@@H]([C@H](C)CCCC(C)(C)O)CC[C@@H]12` [CALCIFEDIOL ANHYDROUS], which IC50 [1] is on record?
**A.** 400 nM

**Q.** What about the Activity [8] of the same molecule?
**A.** > 500%

**Q.** And the IC50 [2]?
**A.** 480 nM

**Q.** And the Activity [9]?
**A.** > 500%

**Q.** And the Kd [7]?
**A.** 6500 nM

**Q.** And the IC50 [10]?
**A.** 4400 nM

**Q.** And the Ratio IC50 (Mus musculus)?
**A.** 11

**Q.** For `C=C1CC[C@H](O)C/C1=C/C=C1\CCC[C@]2(C)[C@@H]([C@H](C)[C@@H](CCC(C)(C)O)OCc3cn(CCOCCOCCOCCNC(=O)CCCC[C@H]4SC[C@H]5NC(=O)N[C@H]54)nn3)CC[C@@H]12`, which Activity [5] is on record?
**A.** < 1%

**Q.** What about the IC50 [1] of the same molecule?
**A.** 1100 nM

**Q.** And the Activity [6]?
**A.** < 1%

**Q.** And the IC50 [2]?
**A.** 1900 nM

**Q.** And the Activity (Homo sapiens [11])?
**A.** Dose-Dependent Effect

**Q.** What about the Activity (ASZ001 [12]) of the same molecule?
**A.** Active

**Q.** And the Activity (C3H 10T1/2)?
**A.** Active

**Q.** What about the Activity (ASZ001 [13]) of the same molecule?
**A.** Active

**Q.** And the Activity (Homo sapiens [14])?
**A.** inactive

**Q.** What about the Activity (Homo sapiens [15]) of the same molecule?
**A.** inactive

**Q.** And the Activity (Homo sapiens [16])?
**A.** Active

**Q.** With `C=C1/C(=C\C=C2/CCC[C@]3(C)[C@@H]([C@H](C)CCCC(C)(C)O)CC[C@@H]23)C[C@@H](O)C[C@@H]1O` as the molecule, how does the Activity (ASZ001 [17]) read?
**A.** Active

**Q.** What about the Activity (MEF [18]) of the same molecule?
**A.** Active

**Q.** What does the source list for `C#CCO[C@H](CCC(C)(C)O)[C@@H](C)[C@H]1CC[C@H]2/C(=C/C=C3/C[C@@H](O)CCC3=C)CCC[C@]12C`?
**A.** IC50 [1]: 13800 nM; Activity [6]: < 1%

**Q.** For `C=C1CC[C@H](O)C/C1=C/C=C1\CCC[C@]2(C)[C@@H]([C@H](C)[C@@H](O)CCC(C)C)CC[C@@H]12`, which Activity ([5]; filed as activator) is on record?
**A.** 261%

**Q.** What about the IC50 [1] of the same molecule?
**A.** 380 nM

**Q.** And the Activity ([6]; filed as activator)?
**A.** 105%

**Q.** What about the IC50 [2] of the same molecule?
**A.** 1300 nM

**Q.** What about the Kd [7] of the same molecule?
**A.** 11500 nM

**Q.** With `COc1ccc(-c2nc(-c3cc(C(F)(F)F)cc(C(F)(F)F)c3)n(Cc3ccc(C(N)=O)cc3)c2-c2ccc(OC)cc2)cc1` as the molecule, how does the IC50 [1] read?
**A.** 580 nM

**Q.** What about the IC50 [2] of the same molecule?
**A.** 970 nM

**Q.** What about the Kd [7] of the same molecule?
**A.** 840 nM

**Q.** And the IC50 [3]?
**A.** 1700 nM

**Q.** And the IC50 ([4]; mef)?
**A.** Not Active

**Q.** With `C=C1CC[C@H](O)C/C1=C/C=C1\CCC[C@]2(C)[C@@H]([C@H](C)[C@H](O)CCC(C)(C)O)CC[C@@H]12` as the molecule, how does the Activity ([5]; filed as activator) read?
**A.** 527%

**Q.** What about the IC50 [1] of the same molecule?
**A.** 710 nM

**Q.** What about the Activity ([6]; filed as activator) of the same molecule?
**A.** 122%

**Q.** What about the IC50 [2] of the same molecule?
**A.** 790 nM

**Q.** What about the Kd [7] of the same molecule?
**A.** 40300 nM

**Q.** With `C#CCO[C@H](CCC(C)C)[C@@H](C)[C@H]1CC[C@H]2/C(=C/C=C3/C[C@@H](O)CCC3=C)CCC[C@]12C` as the molecule, how does the Activity [5] read?
**A.** < 1%

**Q.** And the IC50 [1]?
**A.** 430 nM

**Q.** And the Activity [6]?
**A.** 9%

**Q.** And the IC50 [2]?
**A.** 1100 nM

**Q.** Which Activity [5] does the source give for `C#CCO[C@@H](CCC(C)C)[C@@H](C)[C@H]1CC[C@H]2/C(=C/C=C3/C[C@@H](O)CCC3=C)CCC[C@]12C` here?
**A.** < 1%

**Q.** And the IC50 [1]?
**A.** 260 nM

**Q.** What about the Activity [6] of the same molecule?
**A.** < 1%

**Q.** And the IC50 [2]?
**A.** 2600 nM

**Q.** Which results are given for `C=C1CC[C@H](O)C/C1=C/C=C1\CCC[C@]2(C)[C@@H]([C@H](C)CCCC(C)C)CC[C@@H]12` [CHOLECALCIFEROL]?
**A.** Activity ([5]; filed as activator): 100%; IC50 [1]: 2100 nM; Activity ([6]; filed as activator): 100%; IC50 [2]: 4100 nM; Kd [7]: 1400 nM; IC50 [3]: 5800 nM; IC50 ([4]; Mus musculus, MEF, 48 h, read-out: IC50): 13600 nM; Ratio IC50 (Mus musculus): 2; Activity (ASZ001 [19]): inactive; inhibition (MEF [20]): Active; Activity (MEF [21]): Dose-Dependent Effect; Activity (MEF [22]): Dose-Dependent Effect; Activity (ASZ001 [23]): inactive; Activity (ASZ001 [24]): inactive

**Q.** What does the source list for `C=C1CC[C@H](O)C/C1=C/C=C1\CCC[C@]2(C)[C@@H]([C@H](C)[C@H](CCC(C)(C)O)OCc3cn(CCOCCOCCOCCNC(=O)CCCC[C@H]4SC[C@H]5NC(=O)N[C@H]54)nn3)CC[C@@H]12`?
**A.** Activity [5]: < 1%; IC50 [1]: 3400 nM; Activity [6]: < 1%; IC50 [2]: 7200 nM; Activity (ASZ001 [12]): Active; Activity (C3H 10T1/2): Active

**Q.** With `C=C1CC[C@H](O)C/C1=C/C=C1\CCC[C@]2(C)[C@@H]([C@H](C)[C@H](O)CCC(C)C)CC[C@@H]12` as the molecule, how does the Activity ([5]; filed as activator) read?
**A.** 214%

**Q.** What about the IC50 [1] of the same molecule?
**A.** 420 nM

**Q.** What about the Activity ([6]; filed as activator) of the same molecule?
**A.** 103%

**Q.** What about the IC50 [2] of the same molecule?
**A.** 1200 nM

**Q.** And the Kd [7]?
**A.** 4300 nM
